Experimental data from US10670605B2, “Cysteine reactive probes and uses thereof” (The Scripps Research Institute, priority 2015, dated 2020).
“Also recorded” adds a separate entry of the source.

What was measured:
Assay in all cases: Competitive isoTOP-ABPP in situ (fragment-treated cells)
[1] = target: cysteines in MDA-MB-231 and Ramos cells (Homo sapiens, UniProt O75150); assay type: cell-based; settings: 200 μM, insitu
[2] = target: T1, cysteines in MDA-MB-231 and Ramos cells (Homo sapiens, UniProt Q8IYQ7); assay type: cell-based; settings: 200 μM, insitu, 231
T1 sequence (Q8IYQ7 1-743): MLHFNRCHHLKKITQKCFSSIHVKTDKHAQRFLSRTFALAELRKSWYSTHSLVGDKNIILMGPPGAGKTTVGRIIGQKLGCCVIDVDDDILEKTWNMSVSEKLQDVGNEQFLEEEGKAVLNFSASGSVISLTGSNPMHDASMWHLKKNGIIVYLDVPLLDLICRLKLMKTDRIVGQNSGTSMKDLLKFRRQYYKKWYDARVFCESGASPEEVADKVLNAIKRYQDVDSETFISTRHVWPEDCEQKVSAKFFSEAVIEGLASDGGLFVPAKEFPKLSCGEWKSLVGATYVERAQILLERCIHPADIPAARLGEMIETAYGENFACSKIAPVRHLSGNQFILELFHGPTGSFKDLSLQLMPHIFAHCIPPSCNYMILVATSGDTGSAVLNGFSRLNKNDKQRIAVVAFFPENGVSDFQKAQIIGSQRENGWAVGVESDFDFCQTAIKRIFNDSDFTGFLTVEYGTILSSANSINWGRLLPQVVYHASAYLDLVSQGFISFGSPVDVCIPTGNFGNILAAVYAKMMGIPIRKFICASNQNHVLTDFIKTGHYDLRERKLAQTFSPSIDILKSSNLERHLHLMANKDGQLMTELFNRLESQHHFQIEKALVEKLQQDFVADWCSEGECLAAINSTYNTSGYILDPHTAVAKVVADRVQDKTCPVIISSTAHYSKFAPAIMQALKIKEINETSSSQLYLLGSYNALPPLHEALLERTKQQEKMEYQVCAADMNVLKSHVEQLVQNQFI

[3] = target: cysteines in MDA-MB-231 and Ramos cells (Homo sapiens, UniProt Q5UIP0); assay type: cell-based
[4] = target: cysteines in MDA-MB-231 and Ramos cells (Homo sapiens, UniProt Q9Y5S2); assay type: cell-based
[5] = target: cysteines in MDA-MB-231 and Ramos cells (Homo sapiens, UniProt P46013); assay type: cell-based; settings: 200 μM, insitu
[6] = target: cysteines in MDA-MB-231 and Ramos cells (Homo sapiens, UniProt Q8N999); assay type: cell-based; settings: 200 μM, insitu, 231
[7] = target: T2, cysteines in MDA-MB-231 and Ramos cells (Homo sapiens, UniProt O95833); assay type: cell-based; settings: 200 μM, insitu, 231
T2 sequence (O95833 1-236): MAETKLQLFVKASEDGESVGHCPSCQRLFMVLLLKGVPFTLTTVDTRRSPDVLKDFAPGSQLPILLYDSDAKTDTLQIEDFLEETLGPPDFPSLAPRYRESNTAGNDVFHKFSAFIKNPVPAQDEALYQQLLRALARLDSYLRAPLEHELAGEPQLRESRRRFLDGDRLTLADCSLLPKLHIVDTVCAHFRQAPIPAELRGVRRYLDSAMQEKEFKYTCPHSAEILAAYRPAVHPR

[8] = target: T3, cysteines in MDA-MB-231 and Ramos cells (Homo sapiens, UniProt Q8N5L8); assay type: cell-based; settings: 200 μM, insitu, 231
T3 sequence (Q8N5L8 1-163): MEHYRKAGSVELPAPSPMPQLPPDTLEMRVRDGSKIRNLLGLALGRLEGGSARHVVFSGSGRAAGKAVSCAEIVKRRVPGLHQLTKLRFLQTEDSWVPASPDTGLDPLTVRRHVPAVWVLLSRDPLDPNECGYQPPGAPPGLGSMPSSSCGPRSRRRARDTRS

[9] = target: cysteines in MDA-MB-231 and Ramos cells (Homo sapiens, UniProt O00541); assay type: cell-based
[10] = target: T4, cysteines in MDA-MB-231 and Ramos cells (Homo sapiens, UniProt Q9UKX7); assay type: cell-based
T4 sequence (Q9UKX7 1-468): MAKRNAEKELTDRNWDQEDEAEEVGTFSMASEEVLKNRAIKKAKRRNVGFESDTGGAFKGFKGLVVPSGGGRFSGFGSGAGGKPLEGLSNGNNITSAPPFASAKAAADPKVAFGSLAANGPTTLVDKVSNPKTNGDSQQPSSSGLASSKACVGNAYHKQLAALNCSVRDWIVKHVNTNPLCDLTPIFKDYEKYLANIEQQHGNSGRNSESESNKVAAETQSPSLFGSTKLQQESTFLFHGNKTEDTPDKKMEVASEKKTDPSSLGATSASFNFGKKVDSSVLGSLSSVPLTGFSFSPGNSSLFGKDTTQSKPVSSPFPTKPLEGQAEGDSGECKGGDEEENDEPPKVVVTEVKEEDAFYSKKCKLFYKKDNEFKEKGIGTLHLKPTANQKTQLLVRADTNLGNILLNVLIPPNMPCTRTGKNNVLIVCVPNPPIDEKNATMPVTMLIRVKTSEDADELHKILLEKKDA

[11] = system: cysteines in MDA-MB-231 and Ramos cells; assay type: cell-based, human
[12] = target: T5, cysteines in MDA-MB-231 and Ramos cells (Homo sapiens, UniProt Q8IZ73); assay type: cell-based; settings: 200 μM, insitu
T5 sequence (Q8IZ73 1-545): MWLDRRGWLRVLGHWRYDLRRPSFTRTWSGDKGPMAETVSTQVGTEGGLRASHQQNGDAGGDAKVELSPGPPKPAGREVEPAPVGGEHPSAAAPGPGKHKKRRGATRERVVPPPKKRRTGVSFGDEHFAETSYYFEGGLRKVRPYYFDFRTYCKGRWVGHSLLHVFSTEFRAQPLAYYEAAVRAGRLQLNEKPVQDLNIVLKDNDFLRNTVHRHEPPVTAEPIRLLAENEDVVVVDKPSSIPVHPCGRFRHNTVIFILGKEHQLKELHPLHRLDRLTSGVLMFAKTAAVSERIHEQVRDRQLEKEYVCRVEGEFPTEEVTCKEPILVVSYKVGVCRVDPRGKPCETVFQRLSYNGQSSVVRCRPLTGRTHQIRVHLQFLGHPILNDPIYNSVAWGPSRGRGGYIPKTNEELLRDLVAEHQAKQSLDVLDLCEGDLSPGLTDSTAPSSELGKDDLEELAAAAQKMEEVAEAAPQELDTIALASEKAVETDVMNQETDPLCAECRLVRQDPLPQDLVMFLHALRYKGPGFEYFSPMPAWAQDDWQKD

Chain of cysteines in MDA-MB-231 and Ramos cells (Homo sapiens, UniProt Q9Y5S2) (Q9Y5S2 whole entry): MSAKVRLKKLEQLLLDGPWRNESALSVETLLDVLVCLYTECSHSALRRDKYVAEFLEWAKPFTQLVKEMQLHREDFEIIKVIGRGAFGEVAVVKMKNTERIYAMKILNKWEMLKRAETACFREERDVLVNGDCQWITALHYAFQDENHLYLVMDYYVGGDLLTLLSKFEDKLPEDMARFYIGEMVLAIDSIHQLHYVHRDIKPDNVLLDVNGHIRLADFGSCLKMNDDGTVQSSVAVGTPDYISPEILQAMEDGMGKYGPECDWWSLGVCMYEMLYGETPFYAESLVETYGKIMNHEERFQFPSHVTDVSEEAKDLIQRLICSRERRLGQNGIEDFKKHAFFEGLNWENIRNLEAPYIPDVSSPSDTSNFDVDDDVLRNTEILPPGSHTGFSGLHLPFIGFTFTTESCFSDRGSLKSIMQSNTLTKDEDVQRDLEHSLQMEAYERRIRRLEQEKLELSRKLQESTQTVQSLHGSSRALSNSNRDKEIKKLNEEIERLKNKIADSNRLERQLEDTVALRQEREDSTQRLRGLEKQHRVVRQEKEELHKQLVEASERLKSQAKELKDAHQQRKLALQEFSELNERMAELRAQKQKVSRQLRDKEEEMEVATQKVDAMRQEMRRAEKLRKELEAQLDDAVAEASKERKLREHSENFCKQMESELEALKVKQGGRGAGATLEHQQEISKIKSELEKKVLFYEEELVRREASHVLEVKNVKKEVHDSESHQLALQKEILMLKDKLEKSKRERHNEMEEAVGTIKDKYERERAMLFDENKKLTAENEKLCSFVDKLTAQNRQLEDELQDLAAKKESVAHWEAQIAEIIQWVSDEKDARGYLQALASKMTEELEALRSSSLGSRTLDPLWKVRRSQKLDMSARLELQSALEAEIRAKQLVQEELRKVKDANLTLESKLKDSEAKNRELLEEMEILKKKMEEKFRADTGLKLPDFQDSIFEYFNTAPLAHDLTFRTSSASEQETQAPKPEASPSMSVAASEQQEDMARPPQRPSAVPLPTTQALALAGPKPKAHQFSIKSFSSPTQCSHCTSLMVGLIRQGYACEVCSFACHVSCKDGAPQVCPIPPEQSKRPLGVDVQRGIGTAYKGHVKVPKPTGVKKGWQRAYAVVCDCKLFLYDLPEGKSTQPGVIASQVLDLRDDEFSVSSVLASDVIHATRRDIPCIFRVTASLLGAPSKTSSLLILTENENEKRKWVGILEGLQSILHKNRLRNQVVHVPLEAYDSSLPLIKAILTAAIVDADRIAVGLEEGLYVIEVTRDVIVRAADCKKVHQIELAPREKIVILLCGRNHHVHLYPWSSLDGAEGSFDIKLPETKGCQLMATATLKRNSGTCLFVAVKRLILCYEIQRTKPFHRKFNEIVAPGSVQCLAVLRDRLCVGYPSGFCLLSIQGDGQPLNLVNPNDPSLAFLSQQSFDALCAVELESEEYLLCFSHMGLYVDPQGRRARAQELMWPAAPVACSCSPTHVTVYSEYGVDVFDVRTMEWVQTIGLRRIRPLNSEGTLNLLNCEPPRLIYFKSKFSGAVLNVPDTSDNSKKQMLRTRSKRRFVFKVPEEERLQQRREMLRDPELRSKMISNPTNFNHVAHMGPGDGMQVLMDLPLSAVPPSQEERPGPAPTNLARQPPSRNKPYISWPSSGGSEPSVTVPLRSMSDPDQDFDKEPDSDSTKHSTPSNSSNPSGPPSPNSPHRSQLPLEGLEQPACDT
Chain of cysteines in MDA-MB-231 and Ramos cells (Homo sapiens, UniProt O75150) (O75150 whole entry): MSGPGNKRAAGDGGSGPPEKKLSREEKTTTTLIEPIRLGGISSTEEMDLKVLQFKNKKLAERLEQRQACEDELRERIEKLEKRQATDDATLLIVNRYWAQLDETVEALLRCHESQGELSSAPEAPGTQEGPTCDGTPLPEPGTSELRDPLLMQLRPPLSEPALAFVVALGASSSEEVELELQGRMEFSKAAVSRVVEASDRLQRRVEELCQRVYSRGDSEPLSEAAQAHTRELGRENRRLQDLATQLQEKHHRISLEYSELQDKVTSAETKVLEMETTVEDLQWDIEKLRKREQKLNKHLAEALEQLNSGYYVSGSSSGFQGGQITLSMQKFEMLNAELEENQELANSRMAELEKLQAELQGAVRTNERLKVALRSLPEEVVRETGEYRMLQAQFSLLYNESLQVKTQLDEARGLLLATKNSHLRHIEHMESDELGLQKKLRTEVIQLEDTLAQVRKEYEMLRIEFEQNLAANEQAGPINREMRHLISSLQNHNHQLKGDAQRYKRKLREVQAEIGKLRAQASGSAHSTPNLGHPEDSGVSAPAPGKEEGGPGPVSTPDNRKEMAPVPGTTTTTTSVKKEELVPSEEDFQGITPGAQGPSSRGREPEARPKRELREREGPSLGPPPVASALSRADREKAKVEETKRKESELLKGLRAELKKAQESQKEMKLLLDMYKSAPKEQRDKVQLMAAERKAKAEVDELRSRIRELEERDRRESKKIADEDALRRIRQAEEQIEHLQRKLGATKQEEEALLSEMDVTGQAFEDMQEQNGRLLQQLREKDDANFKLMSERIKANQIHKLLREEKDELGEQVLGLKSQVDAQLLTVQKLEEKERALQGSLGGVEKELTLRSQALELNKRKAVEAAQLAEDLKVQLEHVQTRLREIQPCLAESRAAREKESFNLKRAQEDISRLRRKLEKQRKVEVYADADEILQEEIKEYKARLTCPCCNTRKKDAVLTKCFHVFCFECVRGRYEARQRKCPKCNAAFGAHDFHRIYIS
Chain of cysteines in MDA-MB-231 and Ramos cells (Homo sapiens, UniProt O00541) (O00541 whole entry, looked up): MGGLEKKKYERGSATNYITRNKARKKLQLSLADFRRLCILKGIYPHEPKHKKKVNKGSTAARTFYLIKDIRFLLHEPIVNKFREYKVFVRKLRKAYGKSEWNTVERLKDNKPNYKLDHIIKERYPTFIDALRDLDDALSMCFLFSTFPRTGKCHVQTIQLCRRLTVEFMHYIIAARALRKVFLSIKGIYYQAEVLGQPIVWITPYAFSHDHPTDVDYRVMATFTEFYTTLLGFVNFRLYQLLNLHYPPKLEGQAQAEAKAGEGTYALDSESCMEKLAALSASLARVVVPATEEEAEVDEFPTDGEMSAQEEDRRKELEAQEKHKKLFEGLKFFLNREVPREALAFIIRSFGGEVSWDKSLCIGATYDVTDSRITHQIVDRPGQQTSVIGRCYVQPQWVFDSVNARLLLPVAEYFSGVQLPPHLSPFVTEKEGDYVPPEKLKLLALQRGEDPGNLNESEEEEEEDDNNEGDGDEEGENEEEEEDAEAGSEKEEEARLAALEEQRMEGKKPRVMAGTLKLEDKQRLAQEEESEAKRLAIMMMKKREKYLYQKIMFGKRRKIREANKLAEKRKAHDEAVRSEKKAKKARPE
Chain of cysteines in MDA-MB-231 and Ramos cells (Homo sapiens, UniProt Q8N999) (Q8N999 whole entry): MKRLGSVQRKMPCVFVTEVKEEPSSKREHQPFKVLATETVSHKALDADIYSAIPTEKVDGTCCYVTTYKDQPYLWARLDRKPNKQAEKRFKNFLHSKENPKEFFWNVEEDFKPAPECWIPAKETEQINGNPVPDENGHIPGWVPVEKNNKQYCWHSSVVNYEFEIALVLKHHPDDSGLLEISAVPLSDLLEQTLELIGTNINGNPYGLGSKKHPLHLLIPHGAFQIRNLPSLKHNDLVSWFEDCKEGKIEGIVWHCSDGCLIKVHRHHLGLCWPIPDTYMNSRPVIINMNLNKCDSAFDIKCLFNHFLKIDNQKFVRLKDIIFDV

CC(C)CCOCCNC(=O)CCl [compound 27]
isoTOP-ABPP ratio O75150_C890 [1]; 231: 1.2

COc1cc2c(cc1OC)CN(C(=O)CCl)CC2 [compound 8]
isoTOP-ABPP reactivity Q8IYQ7_C324 THNSL1 [2]: 20.0

COc1ccc(C2CC(c3cccs3)=NN2C(=O)CCl)cc1 (stereo not shown) [compound 4]
isoTOP-ABPP reactivity Q5UIP0_C2298 RIF1 ([3]; 100 μM in situ 231): 20.0 | isoTOP-ABPP reactivity Q9Y5S2_C1517 CDC42BPB ([4]; 100 μM in situ 231): 20.0

O=C(CCl)Nc1cccc2ncccc12 [compound 51]
isoTOP-ABPP ratio P46013_C903 [5]; 231: 1.1

COc1ccccc1OCCNC(=O)CCl [compound 28]
isoTOP-ABPP ratio Q8N999_C302 [6]: 0.6

O=C(CCl)N1CCN(S(=O)(=O)c2ccccc2F)CC1 [compound 10]
isoTOP-ABPP ratio, cysteine O75150_C890 ([1]; ramos): 4.2 | isoTOP-ABPP ratio, cysteine Q5UIP0_C2298 ([3]; 200 μM, insitu, 231): 20.0 | isoTOP-ABPP ratio, cysteine Q8IYQ7_C324 [2]: 5.3

CC1CCc2ccccc2N1C(=O)CCl (stereo not shown) [compound 45]
isoTOP-ABPP ratio O95833_C22 [7]: 13.8 | isoTOP-ABPP ratio P46013_C903 [5]; 231: 20.0 | isoTOP-ABPP ratio Q8N5L8_C131 [8]: 7.3 | isoTOP-ABPP ratio Q8N999_C302 [6]: 20.0 | isoTOP-ABPP ratio Q9Y5S2_C1517 ([4]; 200 μM, insitu, 231): 20.0

Cc1ccc(C=C(C#N)C(=O)NCCN2CCOCC2)cc1 [compound 41]
isoTOP-ABPP ratio, O00541_C272 ([9]; 200 μM, insitu, 231): 0.9 | isoTOP-ABPP ratio O75150_C890 [1]; 231: 1.3 | isoTOP-ABPP ratio P46013_C903 [5]; 231: 1.0 | isoTOP-ABPP ratio Q8N999_C302 [6]: 0.3 | isoTOP-ABPP ratio Q9UKX7_C151 ([10]; 200 μM, insitu, 231): 0.8 | isoTOP-ABPP ratio Q9Y5S2_C1517 ([4]; 200 μM, insitu, 231): 0.4 | isoTOP-ABPP ratio E2QRD5_C183 ([11]; 200 μM, insitu, 231): 0.5

COc1ccc2c(c1)CCCN2C(=O)CCl [compound 2]
isoTOP-ABPP reactivity Q9UKX7_C151 NUP50 ([10]; 200 μM, insitu, 231): 6.1 | isoTOP-ABPP reactivity Q9Y5S2_C1517 CDC42BPB ([4]; 200 μM, insitu, 231): 20.0

C=CC(=O)Nc1cc(F)c(N2CCN(C(=O)OC(C)(C)C)CC2)c(F)c1 [compound 38]
isoTOP-ABPP ratio P46013_C903 [5]; 231: 1.1 | isoTOP-ABPP ratio Q8IZ73_C246 [12]; 231: 1.7

O=C(CCl)NC(=O)NC12CC3CC(CC(C3)C1)C2 [compound 12]
isoTOP-ABPP ratio, cysteine O75150_C890 [1]; 231: 1.1 | isoTOP-ABPP ratio, cysteine Q9UKX7_C151 ([10]; 200 μM, insitu, 231): 6.7

C=CC(=O)N(Cc1cccnc1)c1cc(C(F)(F)F)cc(C(F)(F)F)c1 [compound 31]
isoTOP-ABPP ratio O75150_C890 [1]; 231: 0.7 | isoTOP-ABPP ratio O95833_C22 [7]: 0.5 | isoTOP-ABPP ratio Q8IZ73_C246 [12]; 231: 0.4 | isoTOP-ABPP ratio Q8IZ73_C246 ([12]; ramos): 1.0 | isoTOP-ABPP ratio E2QRD5_C183 ([11]; 200 μM, insitu, 231): 0.8

Cn1cc(S(=O)(=O)N2CCOCC2)cc1C(=O)NC(=O)CCl [compound 11]
isoTOP-ABPP ratio, cysteine O00541_C272 ([9]; 100 μM in situ 231): 1.0 | isoTOP-ABPP ratio, cysteine Q5UIP0_C2298 ([3]; 100 μM in situ 231): 1.3 | isoTOP-ABPP ratio, cysteine Q9UKX7_C151 ([10]; 100 μM in situ 231): 1.0 | isoTOP-ABPP ratio, cysteine Q9Y5S2_C1517 ([4]; 100 μM in situ 231): 1.2 | isoTOP-ABPP ratio, cysteine E2QRD5_C183 ([11]; 100 μM in situ 231): 0.9 | proteomic reactivity in situ (in words) ([11]; in situ, 2 h, versus in vitro): notably devoid of activity in situ; also recorded: notably lower reactivity in situ versus in vitro

O=C(CCl)NCCc1c[nH]c2ccccc12 [compound 13]
isoTOP-ABPP ratio, cysteine O00541_C272 ([9]; 200 μM, insitu, 231): 1.4 | isoTOP-ABPP ratio, cysteine Q8IYQ7_C324 [2]: 1.3 | isoTOP-ABPP ratio, cysteine Q8N5L8_C131 [8]: 1.2

O=C(CCl)N1CCN(CC(=O)N2CCOCC2)CC1 [compound 29]
isoTOP-ABPP ratio P46013_C903 ([5]; ramos): 1.6

O=C(CCl)NC12CC3CC(CC(C3)C1)C2 [compound 21]
isoTOP-ABPP ratio, cysteine O95833_C22 [7]: 1.0 | isoTOP-ABPP ratio, cysteine Q5UIP0_C2298 ([3]; 200 μM, insitu, 231): 0.9 | isoTOP-ABPP ratio, cysteine Q8IYQ7_C324 [2]: 2.0 | isoTOP-ABPP ratio, cysteine Q8IZ73_C246 [12]; 231: 1.8 | isoTOP-ABPP ratio, cysteine Q8N5L8_C131 [8]: 0.8 | isoTOP-ABPP ratio, cysteine E2QRD5_C183 ([11]; 200 μM, insitu, 231): 0.8

O=C(CCl)N1CCC(Cc2ccccc2)CC1 [compound 9]
isoTOP-ABPP reactivity Q8IYQ7_C324 THNSL1 [2]: 1.6
